In PubChem BioAssay (NCI) one finds GI50 and TGI data, which are given here for nine compounds.

Among the test systems are A498 renal; CAKI-1 renal; HOP-62 NSCLC; HT29 colon; K-562 leukemia; M14 melanoma; OVCAR-8 ovarian; RPMI-8226 leukemia; SF-539 CNS; SK-OV-3 ovarian.
What all share (assay): NCI tumour cell line growth inhibition, 48 h

Structures are written as SMILES.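 Cells were grown in 96-well plates and exposed to each compound for 48 hours at five concentrations; endpoints were interpolated linearly between bracketing concentrations, or set to the highest concentration if not reached. Here, GI50 denotes the concentration required for 50% inhibition of growth. Definition used: TGI = concentration required for complete inhibition of growth.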

As to `NS(=O)(=O)c1ccc(-n2nc(-c3ccc(Br)cc3)ccc2=O)cc1`, the GI50 with A498 renal is greater than 10 µM; in the test with CAKI-1 renal, greater than 10 µM; in the test on HOP-62 NSCLC, greater than 10 µM; with HT29 colon it was greater than 10 µM; in the test with K-562 leukemia it was 4.85 µM; with M14 melanoma, greater than 10 µM. For the same compound, the GI50 in the test with OVCAR-8 ovarian, in the test with RPMI-8226 leukemia, in the test with SF-539 CNS and with SK-OV-3 ovarian was greater than 10 µM throughout. In addition, the TGI in the test on A498 renal, in the test with CAKI-1 renal, in the test on HOP-62 NSCLC, in the test on HT29 colon, in the test with K-562 leukemia and in the test on M14 melanoma was greater than 10 µM throughout. The TGI in the test with OVCAR-8 ovarian, in the test on RPMI-8226 leukemia, with SF-539 CNS and in the test on SK-OV-3 ovarian was greater than 10 µM throughout.
For `CCOC(=O)c1cc(-c2ccc([N+](=O)[O-])cc2)n(-c2ccc(C(=O)O)c(O)c2)c1C`, the GI50 was 10.1 µM in the test on A498 renal; 11.6 µM with CAKI-1 renal; 7.55 µM in the test on HOP-62 NSCLC; 3.23 µM in the test with HT29 colon; 3.82 µM in the test on K-562 leukemia; 4.26 µM with M14 melanoma. Further, the GI50 in the test on OVCAR-8 ovarian was 5.29 µM; in the test with RPMI-8226 leukemia, 0.148 µM; in the test on SF-539 CNS, 10.6 µM; in the test with SK-OV-3 ovarian, 10.8 µM. The TGI in the test with A498 renal is 21.9 µM; in the test on CAKI-1 renal, 30.1 µM; with HOP-62 NSCLC, 23.3 µM; in the test with HT29 colon, 13.3 µM; with K-562 leukemia it was greater than 100 µM; with M14 melanoma, 15.2 µM. Besides, the TGI is 43.7 µM with OVCAR-8 ovarian, greater than 100 µM in the test on RPMI-8226 leukemia, 22.5 µM with SF-539 CNS and 23 µM in the test on SK-OV-3 ovarian.
In the case of `OC(c1cccc(C(F)(F)F)c1)c1cnccc1NC1CCCCCC1` (stereo not given), the GI50 with A498 renal is 3.68 µM; in the test on CAKI-1 renal, 1.55 µM; in the test with HOP-62 NSCLC, 1.89 µM; with HT29 colon it was 1.78 µM; with K-562 leukemia it was 1.57 µM; in the test with M14 melanoma, 1.8 µM. In addition, the GI50 was 2.1 µM in the test with OVCAR-8 ovarian, 1.67 µM with RPMI-8226 leukemia, 1.71 µM in the test with SF-539 CNS and 7 µM with SK-OV-3 ovarian. The TGI with A498 renal stood at 15.9 µM; with CAKI-1 renal it was 3.85 µM; in the test on HOP-62 NSCLC, 3.63 µM; with HT29 colon, 3.72 µM; in the test with K-562 leukemia it was 4.51 µM; with M14 melanoma it was 3.64 µM. Besides, the TGI with OVCAR-8 ovarian was 4.59 µM; in the test with RPMI-8226 leukemia, 4.11 µM; in the test on SF-539 CNS it was 3.15 µM; in the test with SK-OV-3 ovarian, 20 µM.
Take `CN(C)c1ccc(/C=C2\C[N+](C)(C)C/C(=C\c3ccc(N(C)C)cc3)C2=O)cc1`: the TGI was greater than 100 µM in the test with A498 renal; greater than 100 µM in the test on CAKI-1 renal; greater than 96.7 µM in the test with HOP-62 NSCLC; 24 µM with HT29 colon; 31.3 µM in the test with K-562 leukemia; 74.8 µM in the test on M14 melanoma. The TGI in the test on OVCAR-8 ovarian turned out to be 65.7 µM; in the test with RPMI-8226 leukemia it was 28.5 µM; with SF-539 CNS it was 49.9 µM; in the test on SK-OV-3 ovarian, 73.1 µM.
On to `NC1(CCCCCCCCCCC(=O)O)CNCCNCCNCCNC1`, for which the TGI with A498 renal is 46.7 µM; in the test with CAKI-1 renal it was greater than 100 µM; in the test with HOP-62 NSCLC, 91.6 µM; in the test with HT29 colon, greater than 100 µM; in the test with K-562 leukemia, greater than 100 µM; in the test on M14 melanoma it was greater than 100 µM. Besides, the TGI with OVCAR-8 ovarian, in the test with RPMI-8226 leukemia, with SF-539 CNS and in the test with SK-OV-3 ovarian was greater than 100 µM each time.
With `C[C@]12CCC(=O)C=C1CC[C@@H]1C2CC[C@]2(C)NC(=O)C(C#N)CC12` (stereo not given in full), the TGI in the test with A498 renal, in the test on CAKI-1 renal, in the test with HOP-62 NSCLC, in the test with HT29 colon, in the test with K-562 leukemia and in the test on M14 melanoma was greater than 100 µM in each case. The TGI in the test on OVCAR-8 ovarian, with RPMI-8226 leukemia, in the test with SF-539 CNS and in the test on SK-OV-3 ovarian was greater than 100 µM throughout.
Consider `COc1cc2c(c(OC)c1OC)-c1ccc(NCc3ccccc3)c(=O)cc1[C@@H](NC(C)=O)CC2`, for which the GI50 in the test with A498 renal was 0.248 µM; in the test with CAKI-1 renal, 3.23 µM; with HOP-62 NSCLC, 0.413 µM; in the test on HT29 colon, 0.373 µM; with K-562 leukemia, 0.381 µM; with M14 melanoma, 0.359 µM. Moreover, the GI50 was 0.444 µM with OVCAR-8 ovarian, 0.531 µM in the test with RPMI-8226 leukemia, 0.309 µM in the test with SF-539 CNS and 0.294 µM in the test on SK-OV-3 ovarian. The TGI was 0.771 µM in the test on A498 renal; 45.8 µM in the test on CAKI-1 renal; 16.9 µM with HOP-62 NSCLC; 11.9 µM in the test with HT29 colon; greater than 100 µM in the test on K-562 leukemia; 23.2 µM in the test on M14 melanoma. In addition, the TGI in the test on OVCAR-8 ovarian was 65 µM; in the test with RPMI-8226 leukemia, 16.3 µM; with SF-539 CNS, 3.51 µM; in the test on SK-OV-3 ovarian it was 0.833 µM.
Regarding `ClCc1ccccc1CSc1ncnc2nc[nH]c12`, the GI50 with A498 renal was 54.1 µM; in the test on CAKI-1 renal, greater than 60 µM; in the test on HOP-62 NSCLC, greater than 60 µM; in the test with HT29 colon, greater than 60 µM; in the test with K-562 leukemia, greater than 60 µM; with M14 melanoma it was greater than 60 µM. The GI50 in the test on OVCAR-8 ovarian, in the test with RPMI-8226 leukemia, in the test on SF-539 CNS and in the test with SK-OV-3 ovarian was greater than 60 µM in each case. The TGI in the test with A498 renal, in the test with CAKI-1 renal, with HOP-62 NSCLC, with HT29 colon, in the test on K-562 leukemia and with M14 melanoma was greater than 60 µM throughout. For the same compound, the TGI in the test with OVCAR-8 ovarian, in the test on RPMI-8226 leukemia, with SF-539 CNS and in the test on SK-OV-3 ovarian was greater than 60 µM each time.
On to `COc1cc2c(c(O)c1C)C(=O)C(Cl)=CC2=O`, for which the TGI in the test on A498 renal is 33.9 µM; in the test with CAKI-1 renal it was 11.6 µM; with HOP-62 NSCLC, greater than 69.2 µM; in the test on HT29 colon, 21.9 µM; with K-562 leukemia, 8.64 µM; in the test on M14 melanoma, 16.5 µM. Also, the TGI with OVCAR-8 ovarian is 45 µM; with RPMI-8226 leukemia it was 68.3 µM; with SF-539 CNS, 33.5 µM; in the test with SK-OV-3 ovarian, greater than 65.6 µM.
